Assay results from patent US8193343B2, “Manufacture and products thereof of photosensitizing nanomaterials and their use in photodynamic treatment” (Westfalische Wilhelms-Universitat Munster, priority 2009, dated 2012).

Experiment: phosphorescence of singlet oxygen (near IR emission spectrum)
Conditions: in CD2Cl2 at room temperature, λexc=670 nm
Procedure: The spectrum was recorded from a suspension of the photosensitizing nanomaterial in CD2Cl2 at room temperature, λexc=670 nm.
The singlet oxygen ^1O2 is produced by reaction of triplet oxygen (^3O2) with the monomeric form of the silicon (IV) phthalocyanine chloride complex, which is present on the surface of the zeolite L crystals, according to an example of the present disclosure. The generation of the singlet oxygen ^1O2 was investigated by measuring the near IR emission spectrum of the photosensitizing nanomaterials 40 in a suspension with deuteriated dichloromethane as the solvent (CD2Cl2). […] No characteristic phosphorescence can be detected.
Fluorescence emission and excitation spectra of the photosensitizing nanomaterial 40 suspended in CH2Cl2 were recorded by using a HORIBA Jobin-Yvon IBH FL-322 Fluorolog 3 spectrometer. The phosphorescence spectrum of ^1O2 in CD2Cl2 was recorded by using a HORIBA Jobin-Yvon IBH FL-322 Fluorolog 3 spectrometer equipped with an air-cooled Hamamatsu H9170-75 (InP/InGaAs) PMT detector.

For `Cl[Si]1(Cl)n2c3c4ccccc4c2N=C2N=C(N=c4c5ccccc5c(n41)=NC1=NC(=N3)c3ccccc31)c1ccccc12` [silicon (IV) phthalocyanine chloride, Si(IV) phthalocyanine dichloride], the “generation of singlet oxygen (1O2), characteristic phosphorescence” value was “does not show any generation of the singlet oxygen”.
